In ChEMBL document CHEMBL5154712, “Activators of the Anticipatory Unfolded Protein Response with Enhanced Selectivity for Estrogen Receptor Positive Breast Cancer” (J Med Chem, 2022):
Each block holds one compound with its values, some of them ahead of it. The source made the active and inactive calls. No cut-off for these calls is given here.

Legend:
[1] = tested on: MCF7; test: Anticancer activity against human MCF7 cells assessed as cell growth inhibition incubated for 24 hrs by alamar blue assay; format: functional, cell-based; conditions: MCF7, 24 h
[2] = tested on: MCF7; test: Anticancer activity against ERalpha positive human MCF7 cells assessed as cell growth inhibition incubated for 72 hrs by alamar blue assay; format: functional, cell-based; conditions: MCF7, 72 h
[3] = tested on: MCF7; test: Anticancer activity against human MCF7 cells assessed as reduction in cell viability incubated for 24 hrs in presence of 10% CD-FBS by alamar blue assay; format: functional, cell-based
[4] = tested on: HT-29; test: Anticancer activity against ERalpha negative human HT-29 cells assessed as cell growth inhibition incubated for 24 hrs by alamar blue assay; format: functional, cell-based; conditions: HT-29, 24 h
[5] = Stability of the compound in simulated gastric fluid assessed as compound remaining measured after 120 mins by LC-MS/MS; format: ADME; conditions: read-out: Stability
[6] = tested on: HCT-116; test: Anticancer activity against ERalpha negative human HCT-116 cells assessed as cell growth inhibition incubated for 72 hrs by alamar blue assay; format: functional, cell-based; conditions: HCT-116, 72 h
[7] = tested on: HT-29; test: Anticancer activity against ERalpha negative human HT-29 cells assessed as cell growth inhibition incubated for 72 hrs by alamar blue assay; format: functional, cell-based; conditions: HT-29, 72 h
[8] = tested on: MDA-MB-231; test: Anticancer activity against ERalpha negative human MDA-MB-231 cells assessed as cell growth inhibition incubated for 72 hrs by alamar blue assay; format: functional, cell-based; conditions: MDA-MB-231, 72 h
[9] = tested on: HCT-116; test: Anticancer activity against ERalpha negative human HCT-116 cells assessed as cell growth inhibition incubated for 24 hrs by alamar blue assay; format: functional, cell-based; conditions: HCT-116, 24 h
[10] = Selectivity ratio of IC50 for human HT-29 cells to IC50 for human MCF7 cells; format: functional
[11] = Selectivity ratio of IC50 for human MDA-MB-231 cells to IC50 for human MCF7 cells; format: functional
[12] = Selectivity ratio of IC50 for human HCT-116 cells to IC50 for human MCF7 cells; format: functional
[13] = tested on: MDA-MB-231; test: Anticancer activity against ERalpha negative human MDA-MB-231 cells assessed as cell growth inhibition incubated for 24 hrs by alamar blue assay; format: functional, cell-based; conditions: MDA-MB-231, 24 h
[14] = tested on: T47D; test: Anticancer activity against human T47D cells harbouring ERalphaY537S mutant assessed as cell growth inhibition incubated for 24 hrs by alamar blue assay; format: functional, cell-based
[15] = Volume of distribution at steady state in CD-1 mouse at 20 mg/kg, iv by LC-MS/MS analysis; format: ADME, organism-based; conditions: CD-1, mouse, in vivo, read-out: Vdss
[16] = Stability of the compound in simulated gastric fluid assessed as half life measured upto 120 mins by LC-MS/MS analysis; format: ADME
[17] = tested on: HCT-116; test: Anticancer activity against ERalpha negative human HCT-116 cells assessed as cell growth inhibition incubated for 168 hrs by alamar blue assay; format: functional, cell-based; conditions: HCT-116, 168 h
[18] = AUC in CD-1 mouse at 20 mg/kg, iv by LC-MS/MS analysis; format: ADME, organism-based; parameters: dose 20 mg/kg, route iv; conditions: CD-1, mouse, in vivo, read-out: AUC
[19] = tested on: T47D; test: Anticancer activity against human T47D cells harbouring ERalphaD538G mutant assessed as cell growth inhibition incubated for 24 hrs by alamar blue assay; format: functional, cell-based
[20] = Clearance in CD-1 mouse at 20 mg/kg, iv by LC-MS/MS analysis; format: ADME, organism-based; conditions: in vivo
[21] = tested on: MCF7; test: Antitumor activity against human MCF7 cells xenografted in athymic nude mouse assessed as reduction in tumor growth at 5 mg/kg, iv administered once a week for three doses administered for 14 days; format: functional, organism-based; conditions: time 14.0 day
[22] = Half life in CD-1 mouse at 20 mg/kg, iv by LC-MS/MS analysis; format: ADME, organism-based; conditions: CD-1, mouse, in vivo
[23] = MRT in CD-1 mouse at 20 mg/kg, iv by LC-MS/MS analysis; format: ADME, organism-based; conditions: CD-1, mouse, in vivo, read-out: MRT
[24] = tested on: MDA-MB-231; test: Anticancer activity against ERalpha negative human MDA-MB-231 cells assessed as cell growth inhibition incubated for 168 hrs by alamar blue assay; format: functional, cell-based; conditions: MDA-MB-231, 168 h
[25] = Selectivity ratio of IC50 for human MDA-MB-436 cells to IC50 for human MCF7 cells; format: functional
[26] = tested on: MDA-MB-436; test: Anticancer activity against ERalpha negative human MDA-MB-436 cells assessed as cell growth inhibition incubated for 24 hrs by alamar blue assay; format: functional, cell-based; conditions: MDA-MB-436, 24 h
[27] = tested on: MDA-MB-436; test: Anticancer activity against ERalpha negative human MDA-MB-436 cells assessed as cell growth inhibition incubated for 72 hrs by alamar blue assay; format: functional, cell-based; conditions: MDA-MB-436, 72 h
[28] = tested on: T47D; test: Anticancer activity against ERalpha positive human T47D cells assessed as cell growth inhibition incubated for 24 hrs by alamar blue assay; format: functional, cell-based
[29] = Cmax in CD-1 mouse at 20 mg/kg, iv by LC-MS/MS analysis; format: ADME, organism-based; parameters: dose 20 mg/kg, route iv; conditions: CD-1, mouse, in vivo, read-out: Cmax
[30] = tested on: MCF7; test: Anticancer activity against human MCF7 cells assessed as reduction in cell viability incubated for 24 hrs in presence of 10% CD-FBS and 17-beta-estradiol by alamar blue assay; format: functional, cell-based
[31] = Toxicity in po dosed CD-1 mouse assessed as maximum tolerated dose administered as single dose; format: organism-based; conditions: in vivo
[32] = Oral bioavailability in CD-1 mouse at 40 mg/kg by LC-MS/MS analysis; format: ADME, organism-based; conditions: in vivo
[33] = Toxicity in athymic nude mouse xenografted with human MCF7 cells assessed as change in body weight at 5 mg/kg, iv administered once a week for three doses administered for 14 days; format: organism-based; conditions: in vivo, 336 h, time 14 day
[34] = Toxicity in iv dosed CD-1 mouse assessed as maximum tolerated dose administered as single dose; format: organism-based; conditions: in vivo
[35] = Toxicity in iv dosed Sprague-Dawley rat assessed as maximum tolerated dose administered as single dose; format: organism-based; conditions: in vivo

SMILES: O=C1Nc2c(C(F)(F)F)cccc2C1(c1ccc(O)cc1)N1CCCCC1 (centres undefined)
IC50 [1]: > 1 µM

SMILES: O=C1Nc2c(C(F)(F)F)cccc2[C@]1(c1ccc(O)cc1)N1CC(F)(F)C(F)(F)C1
IC50 [2]: > 1 µM | IC50 [1]: > 1 µM | IC50 ([3]; MCF7, 24 h): > 1 µM

SMILES: O=C1Nc2c(C(F)(F)F)cccc2C1(c1ccc(O)cc1)N1CCC(F)(F)CC1 (centres undefined)
IC50 [1]: 0.035 µM

SMILES: O=C1Nc2c(C(F)(F)F)cccc2[C@@]1(c1ccc(O)cc1)N1CCC(F)(F)C1
IC50 [4]: 35 µM | remaining at 2 h [5]: 20% | IC50 [6]: 20 µM | IC50 [7]: 30 µM | IC50 [8]: 32 µM | IC50 [9]: 45 µM | Ratio IC50 [10]: 1400 | IC50 [1]: 0.017 µM | Ratio IC50 [11]: 1500 | Ratio IC50 [12]: 900 | IC50 [13]: 51 µM

SMILES: O=C1Nc2c(C(F)(F)F)cccc2[C@@]1(c1ccc(O)cc1)C1CCC(F)(F)CC1
IC50 [1]: > 1 µM

SMILES: O=C1Nc2c(C(F)(F)F)cccc2[C@]1(c1ccc(O)cc1)C1CCC(F)(F)CC1
IC50 [14]: 0.007 µM | Vd [15]: 2.8 L/kg | half-life [16]: 56 min | IC50 [4]: 33 µM | IC50 [17]: 42 µM | remaining at 2 h [5]: 13% | AUC [18]: 6300 ng·h/mL | IC50 [19]: 0.009 µM | IC50 [6]: 55 µM | clearance [20]: 52 mL/min/kg | Activity [21]: Active | half-life [22]: 18 min | MRT [23]: 54 min | IC50 [2]: 0.017 µM | IC50 [24]: 33 µM | IC50 [7]: 27 µM | IC50 [8]: 55 µM | IC50 [9]: 55 µM | Ratio IC50 [25]: 3200 | IC50 [26]: 64 µM | IC50 [27]: 55 µM | IC50 [28]: 0.016 µM | Cmax [29]: 14700 ng/mL | Ratio IC50 [10]: 1600 | Activity [30]: Active | MTD [31]: > 200 mg/kg | IC50 [1]: 0.017 µM | bioavailability [32]: 6% | Activity [33]: Non-Toxic | Ratio IC50 [11]: 1900 | MTD [34]: 95 mg/kg | MTD [35]: > 50 mg/kg | Ratio IC50 [12]: 3200 | Activity [3]: Active | IC50 [13]: 55 µM

SMILES: CC1CN(C2(c3ccc(O)cc3)C(=O)Nc3c(C(F)(F)F)cccc32)CCC1(F)F (centres undefined)
IC50 [1]: 0.07 µM

SMILES: O=C1Nc2c(C(F)(F)F)cccc2[C@@]1(c1ccc(O)cc1)N1CC(F)(F)C(F)(F)C1
IC50 [4]: 25 µM | remaining at 2 h [5]: 27% | IC50 [6]: 15 µM | IC50 [2]: 0.004 µM | IC50 [7]: 15 µM | IC50 [8]: 14 µM | IC50 [9]: 24 µM | Ratio IC50 [10]: 3800 | IC50 [1]: 0.005 µM | Ratio IC50 [11]: 3500 | Ratio IC50 [12]: 3800 | IC50 [13]: 22 µM

Next, values leading:

IC50 [1]: 0.049 µM
SMILES: O=C1Nc2c(C(F)(F)F)cccc2C1(c1ccc(OC(F)(F)F)cc1)c1ccc(O)c(O)c1 (centres undefined)

IC50 [1]: 0.024 µM
SMILES: O=C1Nc2c(C(F)(F)F)cccc2[C@]1(c1ccc(OC(F)(F)F)cc1)c1ccc(O)c(O)c1

IC50 [1]: 0.177 µM
SMILES: O=C1Nc2c(C(F)(F)F)cccc2C1(c1ccc(OC(F)(F)F)cc1)c1ccc(O)cc1F (centres undefined)

IC50 [1]: 0.135 µM
SMILES: O=C1Nc2c(C(F)(F)F)cccc2C1(c1ccc(O)cc1)N1CCC(OC(F)(F)F)CC1 (centres undefined)
